{
  "source": "ChEMBL document CHEMBL3046689",
  "about": "“Volatile aldehydes are promising broad-spectrum postharvest insecticides” (J Agric Food Chem, 2000)",
  "key": {"Brevicoryne brassicae": {"system": "Brevicoryne brassicae", "assay": "Insecticidal activity against Brevicoryne brassicae (cabbage aphids)", "format": "functional, organism-based"}, "[1]": {"system": "Brassica oleracea var. italica", "assay": "Phytotoxicity in Brassica oleracea var. italica after compound application for 1 hr through two-tier reduced pressure fumigation at 30 mmHg for 0.5 hr and then 760 mmHg for 1.5 hr at 23 +/- 1 degC", "format": "organism-based", "settings": "in vivo"}, "Phaseolus vulgaris [2]": {"system": "Phaseolus vulgaris", "assay": "PhytoToxicity in Phaseolus vulgaris (beans) assessed as induction of visual damage after compound application for 1 hr through two-tier reduced pressure fumigation at 30 mmHg for 0.5 hr and then 760 mmHg for 1.5 hr at 23 +/- 1 degC", "format": "organism-based", "settings": "in vivo, other"}, "[3]": {"system": "Brassica oleracea var. capitata", "assay": "Phytotoxicity in Brassica oleracea var. capitata (cabbage) after compound application for 1 hr through two-tier reduced pressure fumigation at 30 mmHg for 0.5 hr and then 760 mmHg for 1.5 hr at 23 +/- 1 degC", "format": "organism-based", "settings": "in vivo"}, "[4]": {"system": "Brassica oleracea var. capitata", "assay": "Phytotoxicity in Brassica oleracea var. capitata (cabbage) assessed as induction of olfactory damage after compound application for 1 hr through two-tier reduced pressure fumigation at 30 mmHg for 0.5 hr and then 760 mmHg for 1.5 hr at 23 +/- 1 degC", "format": "organism-based", "settings": "in vivo"}, "Bemisia": {"system": "Bemisia", "assay": "Insecticidal activity against Bemisia sp.", "format": "functional, organism-based"}, "Citrus limon": {"system": "Citrus limon", "assay": "Phytotoxicity in Citrus limon (lemon) assessed as induction of visual damage after compound application for 1 hr through two-tier reduced pressure fumigation at 30 mmHg for 0.5 hr and then 760 mmHg for 1.5 hr at 23 +/- 1 degC", "format": "organism-based", "settings": "citrus x limon, in vivo"}, "Myzus persicae [5]": {"system": "Myzus persicae", "assay": "Insecticidal activity against Myzus persicae (green peach aphid) infested wrapped lettuce applied for 1 hr through two-tier reduced pressure fumigation at 30 mmHg for 0.5 hr and then 760 mmHg for 1.5 hr at 23 +/- 1 degC measured 24 hr", "format": "functional, organism-based"}, "Lactuca sativa [6]": {"system": "Lactuca sativa", "assay": "Phytotoxicity in naked Lactuca sativa (lettuce) after compound application for 1 hr through two-tier reduced pressure fumigation at 30 mmHg for 0.5 hr and then 760 mmHg for 1.5 hr at 23 +/- 1 degC", "format": "organism-based", "settings": "in vivo"}, "Lactuca sativa [7]": {"system": "Lactuca sativa", "assay": "Phytotoxicity in naked Lactuca sativa (lettuce) assessed as residual aldehyde odor after compound application through two-tier reduced pressure fumigation at 30 mmHg for 0.5 hr and then 760 mmHg for 1.5 hr at 23 +/- 1 degC after 2 hr", "format": "organism-based", "settings": "in vivo"}, "Lactuca sativa [8]": {"system": "Lactuca sativa", "assay": "Phytotoxicity in naked Lactuca sativa (lettuce) assessed as change in visual quality after compound application for 1 hr through two-tier reduced pressure fumigation at 30 mmHg for 0.5 hr and then 760 mmHg for 1.5 hr at 23 +/- 1 degC", "format": "organism-based", "settings": "in vivo"}, "Myzus persicae [9]": {"system": "Myzus persicae", "assay": "Insecticidal activity against Myzus persicae (green peach aphid) infested naked lettuce applied for 1 hr through two-tier reduced pressure fumigation at 30 mmHg for 0.5 hr and then 760 mmHg for 1.5 hr at 23 +/- 1 degC measured 24 hr", "format": "functional, organism-based"}, "Vitis vinifera [10]": {"system": "Vitis vinifera", "assay": "(§1) Phytotoxicity in Vitis vinifera assessed as induction of visual damage after compound application for 1 hr through two-tier reduced pressure fumigation at 30 mmHg for 0.5 hr and then 760 mmHg for 1.5 hr at 23 +/- 1 degC", "format": "organism-based", "settings": "in vivo"}, "[11]": {"system": "Brassica oleracea var. italica", "assay": "Phytotoxicity in Brassica oleracea var. italica assessed as induction of olfactory damage after compound application for 1 hr through two-tier reduced pressure fumigation at 30 mmHg for 0.5 hr and then 760 mmHg for 1.5 hr at 23 +/- 1 degC", "format": "organism-based", "settings": "in vivo"}, "Lactuca sativa [12]": {"system": "Lactuca sativa", "assay": "Phytotoxicity in wrapped Lactuca sativa (lettuce) assessed as induction of olfactory damage after compound application for 1 hr through two-tier reduced pressure fumigation at 30 mmHg for 0.5 hr and then 760 mmHg for 1.5 hr at 23 +/- 1 degC", "format": "organism-based", "settings": "in vivo"}, "Vitis vinifera [13]": {"system": "Vitis vinifera", "assay": "(§2) Phytotoxicity in Vitis vinifera assessed as induction of olfactory damage after compound application for 1 hr through two-tier reduced pressure fumigation at 30 mmHg for 0.5 hr and then 760 mmHg for 1.5 hr at 23 +/- 1 degC", "format": "organism-based", "settings": "in vivo"}, "Persea americana": {"system": "Persea americana", "assay": "Phytotoxicity in Persea americana (avocado) assessed as induction of olfactory damage after compound application for 1 hr through two-tier reduced pressure fumigation at 30 mmHg for 0.5 hr and then 760 mmHg for 1.5 hr at 23 +/- 1 degC", "format": "organism-based", "settings": "in vivo"}, "Malus domestica [14]": {"system": "Malus domestica", "assay": "Phytotoxicity in Malus x domestica (apple) assessed as induction of visual damage after compound application for 1 hr through two-tier reduced pressure fumigation at 30 mmHg for 0.5 hr and then 760 mmHg for 1.5 hr at 23 +/- 1 degC", "format": "organism-based", "settings": "in vivo"}, "Citrus sinensis": {"system": "Citrus sinensis", "assay": "Phytotoxicity in Citrus sinensis (orange) assessed as induction of olfactory damage after compound application for 1 hr through two-tier reduced pressure fumigation at 30 mmHg for 0.5 hr and then 760 mmHg for 1.5 hr at 23 +/- 1 degC", "format": "organism-based", "settings": "in vivo"}, "Oryza sativa": {"system": "Oryza sativa", "assay": "Phytotoxicity in Oryza sativa (rice) assessed as induction of visual damage after compound application for 1 hr through two-tier reduced pressure fumigation at 30 mmHg for 0.5 hr and then 760 mmHg for 1.5 hr at 23 +/- 1 degC", "format": "organism-based", "settings": "in vivo"}, "[15]": {"system": "Frankliniella occidentalis", "assay": "Insecticidal activity against Frankliniella occidentalis (western flower thrips)", "format": "functional, organism-based"}, "Vitis vinifera [16]": {"system": "Vitis vinifera", "assay": "as §1", "format": "organism-based", "settings": "in vivo", "remark": "listed apart in the source"}, "[17]": {"system": "Brassica oleracea var. italica", "assay": "Phytotoxicity in Brassica oleracea var. italica assessed as induction of visual damage after compound application for 1 hr through two-tier reduced pressure fumigation at 30 mmHg for 0.5 hr and then 760 mmHg for 1.5 hr at 23 +/- 1 degC", "format": "organism-based", "settings": "in vivo"}, "Lactuca sativa [18]": {"system": "Lactuca sativa", "assay": "Phytotoxicity in wrapped Lactuca sativa (lettuce) assessed as induction of visual damage after compound application for 1 hr through two-tier reduced pressure fumigation at 30 mmHg for 0.5 hr and then 760 mmHg for 1.5 hr at 23 +/- 1 degC", "format": "organism-based", "settings": "in vivo"}, "[19]": {"system": "Brassica oleracea var. capitata", "assay": "Phytotoxicity in Brassica oleracea var. capitata (cabbage) assessed as induction of visual damage after compound application for 1 hr through two-tier reduced pressure fumigation at 30 mmHg for 0.5 hr and then 760 mmHg for 1.5 hr at 23 +/- 1 degC", "format": "organism-based", "settings": "in vivo"}, "Myzus persicae [20]": {"system": "Myzus persicae", "assay": "Insecticidal activity against Myzus persicae (green peach aphid) applied through two-tier reduced pressure fumigation at 30 mmHg for 0.5 hr and then 760 mmHg for 1.5 hr at 23 +/- 1 degC", "format": "functional"}, "Malus domestica [21]": {"system": "Malus domestica", "assay": "Phytotoxicity in Malus x domestica (apple) assessed as induction of olfactory damage after compound application for 1 hr through two-tier reduced pressure fumigation at 30 mmHg for 0.5 hr and then 760 mmHg for 1.5 hr at 23 +/- 1 degC", "format": "organism-based", "settings": "in vivo"}, "Myzus persicae [22]": {"system": "Myzus persicae", "assay": "Insecticidal activity against Myzus persicae (green peach aphid) placed under third leaf of naked Iceburg lettuce heads and after compound application for 2 hr through two-tier reduced pressure fumigation at 30 mmHg for 0.5 hr and then 760 mmHg for 1.5 hr at 23 +/- 1 degC measured after 24 hr", "format": "functional"}, "Vitis vinifera [23]": {"system": "Vitis vinifera", "assay": "as §2", "format": "organism-based", "settings": "in vivo", "remark": "listed apart in the source"}, "Phaseolus vulgaris [24]": {"system": "Phaseolus vulgaris", "assay": "PhytoToxicity in Phaseolus vulgaris (beans) assessed as induction of olfactory damage after compound application for 1 hr through two-tier reduced pressure fumigation at 30 mmHg for 0.5 hr and then 760 mmHg for 1.5 hr at 23 +/- 1 degC", "format": "organism-based", "settings": "in vivo"}},
  "note": "The source made the active and inactive calls. The rule behind the calls is not given here.",
  "data": [
    {"compound": "CCC=O", "note": "[PROPIONALDEHYDE]", "values": [
      {"measurement": "Activity", "setting": "Brevicoryne brassicae", "value": "inactive"},
      {"measurement": "Activity", "setting": "[1]", "value": "Toxic"},
      {"measurement": "Activity", "setting": "Phaseolus vulgaris [2]", "value": "Non-toxic"},
      {"measurement": "Activity", "setting": "[3]", "value": "Toxic"},
      {"measurement": "Activity", "setting": "[4]", "value": "Toxic"},
      {"measurement": "Activity", "setting": "Bemisia", "value": "Active"},
      {"measurement": "Activity", "setting": "Citrus limon", "value": "Non-toxic"},
      {"measurement": "Activity", "setting": "Myzus persicae [5]", "value": "Active"},
      {"measurement": "Activity", "setting": "Lactuca sativa [6]", "value": "Toxic"},
      {"measurement": "Activity", "setting": "Lactuca sativa [7]", "value": "Toxic"},
      {"measurement": "Activity", "setting": "Lactuca sativa [8]", "value": "Toxic"},
      {"measurement": "Activity", "setting": "Myzus persicae [9]", "value": "Active"},
      {"measurement": "Activity", "setting": "Vitis vinifera [10]", "value": "Non-toxic"},
      {"measurement": "Activity", "setting": "[11]", "value": "Toxic"},
      {"measurement": "Activity", "setting": "Lactuca sativa [12]", "value": "Toxic"},
      {"measurement": "Activity", "setting": "Vitis vinifera [13]", "value": "Non-toxic"},
      {"measurement": "Activity", "setting": "Persea americana", "value": "Non-toxic"},
      {"measurement": "Activity", "setting": "Malus domestica [14]", "value": "Non-toxic"},
      {"measurement": "Activity", "setting": "Citrus sinensis", "value": "Non-toxic"},
      {"measurement": "Activity", "setting": "Oryza sativa", "value": "Non-toxic"},
      {"measurement": "Activity", "setting": "[15]", "value": "Active"},
      {"measurement": "Activity", "setting": "Vitis vinifera [16]", "value": "Non-toxic"},
      {"measurement": "Activity", "setting": "[17]", "value": "Non-toxic"},
      {"measurement": "Activity", "setting": "Lactuca sativa [18]", "value": "Non-toxic"},
      {"measurement": "Activity", "setting": "[19]", "value": "Non-toxic"},
      {"measurement": "CTP", "setting": "Myzus persicae [20]", "value": 4.2, "unit": "mg/L.hr"},
      {"measurement": "Activity", "setting": "Malus domestica [21]", "value": "Non-toxic"},
      {"measurement": "CTP", "setting": "Myzus persicae [22]", "value": 304, "unit": "mg/L.hr"},
      {"measurement": "LD90", "setting": "Myzus persicae [22]", "value": 124.5, "unit": "mg/L"},
      {"measurement": "Activity", "setting": "Vitis vinifera [23]", "value": "Non-toxic"},
      {"measurement": "Activity", "setting": "Phaseolus vulgaris [24]", "value": "Non-toxic"}
    ]}
  ]
}
